Source: US10106828B2, “Cell culture medium and process for protein expression, said medium and process comprising a PAM inhibitor” (SANDOZ GMBH, priority 2010, dated 2018)

Legend:
CHO cells [1] = assay: Influence of PBA on proline amide formation on an Fc-fusion protein expressed in CHO cells, quantified by peptide mapping; assay type: cell-based, Chinese hamster; conditions: for proline amide (% per heavy chain): without PBA >4%
Excerpt: (§1) For antibodies, co-elution of proline amide variants with lysine variants is avoided by removal of lysine residues using carboxypeptidase B digestion prior to chromatographic separation. Additional co-elution with other basic variants, however, can result in a quantification background of several percent (e.g. 4%). Proline amide variants plus background are termed “Pseudo 1K” for eluting at the chromatographic position of the antibody variant with one C-terminal lysine residue. “Pseudo 2K” encompasses the proline variants plus background eluting at the chromatographic position of the antibody variant with two C-terminal lysine residue. The difference to the CEX method (i.e. CEX without lysine removal by CPB digestion) is indicating the amount of antibody variants with lysine residues, termed “Real 1K” and “Real 2K”. The quantification by CEX(-CPB) returns the percentage of proline amidated antibodies relative to all antibody molecules in a solution. An analytical test method which unambiguously can identify and quantify amidated proline variants is RP-HPLC (reversed-phase high-performance-liquid-chromatography) of endopeptidase (e.g. LysC, Trypsin) digested protein, so called peptide mapping, using UV (ultraviolet) or MS (mass-spec) detection. The quantification by RP-HPLC peptide mapping returns for an antibody the percentage of proline amidated heavy chains relative to all heavy chains.
Two recombinant proteins were used to investigate the effect of PAM inhibitors on amino acid amidation/proline amid formation, i.e., a monoclonal antibody (human-mouse-chimeric IgG), and an Fc-fusion protein. CHO cells were used as expression system.
FIG. 2: Influence of PAM inhibitor PBA on proline amide formation on an Fc-fusion protein expressed in CHO cells, as quantified by peptide mapping. Supplementing the cultures of recombinant CHO cells with various concentrations of PBA up to 100 μM decreased the amount of proline amide (% per heavy chain) in a dose-dependent effect curve from app. 2% (no PBA) to app. 0.1% (100 μM PBA).
FIG. 3: Influence of PAM inhibitor PBA on proline amide formation on an Fc-fusion protein expressed in CHO cells, as quantified by peptide mapping.

CHO cells [2] = assay: Influence of PAM inhibitors on proline amide formation on a monoclonal antibody (chimeric IgG) expressed in CHO cells, CEX-CPB analysis / peptide mapping; assay type: cell-based, Chinese hamster; conditions: FIG. 1; for amount of pseudo 1K (proline amide) in CEX-CPB: monoclonal antibody (chimeric IgG), control without inhibitor app. 10%
Excerpt: The amount of proline amide can be identified and quantified by various analytical methods, by distinguishing the amidated variant from the non-amidated one by physico-chemical differences such as charge, hydrophobicity or mass. The most common method is ion exchange chromatography, as the CEX-CPB method (cation exchange chromatography after digestion by carboxypeptidase B), exploiting the charge alteration due to proline amidation.
as §1
“Pseudo 1K” is the variant determined by CEX-CPB where one of the two heavy chains of an antibody (IgG) has a proline amide at its C-terminus. “Pseudo 2K” is the variant determined by CEX-CPB where both heavy chains of a monoclonal antibody have a proline amide at their C-termini.
In their experiments, the inventors focused on published PAM inhibitors as potential medium components. Among the screened components are, i.e., sodium sulfite, tiopronin, captopril, EDTA, ammonium sulfite, L-histidine, D-histidine, ammonium meta thiomolybdate, L-carnosine, penicillamine, 4-phenyl-3 butenoic acid (PBA). […]
FIG. 1: Influence of PAM inhibitors on proline amide (PA) formation, quantified as ‘pseudo 1K’ in CEX-CPB analysis, on a monoclonal antibody (chimeric IgG) expressed in CHO cells. […]

Compound: O=C(O)CC=Cc1ccccc1 [PBA, 4-phenyl-3-butenoic acid]
- amount of proline amide (% per heavy chain) (CHO cells [1]; FIG. 2, 100 μM PBA, no PBA app. 2%): ~0.1%
- effect curve of proline amide decrease (CHO cells [1]; FIG. 2, various concentrations up to 100 μM): dose-dependent
- proline amide (% per heavy chain) (CHO cells [1]; FIG. 3, 50 μM PBA): < 1%
- proline amide (% per heavy chain) (CHO cells [1]; FIG. 3, 100 μM PBA): < 0.5%
- amount of pseudo 1K (proline amide) in CEX-CPB (CHO cells [2]; 10 μM in cell culture medium): ~8%
- amount of pseudo 1K (proline amide) in CEX-CPB (CHO cells [2]; 100 μM in cell culture medium): ~5%
- proline amide per heavy chain, peptide mapping (CHO cells [2]; corresponds to 5% pseudo 1K in CEX-CPB (100 μM), monoclonal antibody): 0-2%
- effect on proline amide formation compared with other screened PAM inhibitors (CHO cells [2]; supplemented to the cell culture): strongest effect
